Data reported in patent US20230075765A1, “PYRROLO[2,3-D]PYRIMIDINE DERIVATIVE TARGETING EGFR MUTATION, AS WELL AS THE PREPARATIVE METHOD AND THE USE THEREOF” (WEST CHINA HOSPITAL, SICHUAN UNIVERSITY, priority 2020, published 2023).
Like-named read-outs stand apart in the source and are kept apart here.

What was measured:
Format in all cases: cell-based, human
A549 cells = test: Inhibition of cell proliferation, CCK8 method; settings: A549 lung adenocarcinoma cells, 48 h, read-out: Inhibitory activity (IC50) against A549
Experimental: (§1) Compounds 1-9 of the present invention were respectively weighed and dissolved in 1 ml of dimethyl sulfoxide (DMSO), to prepare a 10 mM drug solution, which was stored in a refrigerator at −20° C. in the dark after packaging. The stock solution was diluted with the corresponding culture medium to the required concentration just before the experiment.
(§2) HBE cells and BEAS-2B cells are normal lung bronchial epithelial cell lines, and both cells were cultured in DMEM high glucose medium (supplemented with 10% fetal bovine serum and 1% double antibody) to the logarithmic growth phase; H460 cells, A549 cells, H1975 cells and HCC827 cells are lung cancer cell lines, and all of them were cultured in RPMI1640 medium (supplemented with 10% fetal bovine serum and 1% double antibody) to the logarithmic growth phase. Among them, H1975 cells and HCC827 cells are EGFR mutant cells.
(§3) When the cells were cultured to 90% of the growth density, the cells were digested with 0.25% trypsin to prepare a single cell suspension. The cells were counted, and then seeded in a 96-well plate at a density of 5000 cells/well, 100 μl for each well. The culture plate was moved into a CO2 incubator and incubated for 24 h at 37° C. and 5% CO2. Compounds at different concentrations were added to each well, 5 replicate wells for each concentration, and the cells were treated with the compounds for 48 hours. CCK8 detection reagent was added to each well according to the operation manual, and then the plate was further incubated for 1 h before terminating the culture. 450 nm wavelength was chosen, and the absorbance value of each well was adjusted on the microplate ELISA analyzer. The result was recorded. […] was taken as the horizontal axis, and absorbance as the vertical axis to plot a curve. The half inhibitory concentration (IC50) was calculated by Bliss method. Each experiment was repeated at least 3 times.
(§4) Normal lung cell lines and different lung cancer cell lines were selected for experiments. Amongst, the compound with high anti-cancer activity was screened, whose anti-tumor activity was further studied.

BEAS-2B cells = test: Inhibition of cell proliferation, CCK8 method; settings: BEAS-2B normal bronchial epithelial cells, 48 h, read-out: Inhibitory activity (IC50) against BEAS-2B
Experimental: as §1, §2, §3, §4

H460 cells = test: Inhibition of cell proliferation, CCK8 method; settings: 48 h, read-out: Inhibitory activity (IC50) against H460
Experimental: as §1, §2, §3, §4

HCC827 cells [1] = test: Inhibition of cell proliferation, CCK8 method; settings: HCC827 EGFR mutant cells, 48 h, CCK8, read-out: Inhibitory activity (IC50) against HCC827
Experimental: (§5) The stock solution was diluted with the corresponding culture medium to the required concentration just before the experiment.
as §2
as §3, with “The” for “When the cells were cultured to 90% of the growth density, the cells were digested with 0.25% trypsin to prepare a single cell suspension. The”
(§6) Normal lung cell lines and different lung cancer cell lines were selected for experiments.

H1975 cells [2] = test: Apoptosis, Annexin V-FITC/PI double staining, flow cytometry; settings: 18 h (control 9.2)
Experimental: (§7) Apoptosis was detected by Annexin V-FITC/PI double staining method. A variety of different cells in the logarithmic growth phase were inoculated evenly in a 6-well plate at a concentration of 1×10^6 cells/well, 2 ml for each well, and then incubated overnight. Then, different compounds were added, and each compound was set different concentrations. After 18 h, the cells were collected with 0.25% trypsin without EDTA and washed twice with PBS solution. Then, the cells were stained by the apoptosis detection kit according to the instructions, and analyzed by flow cytometry.
(§8) In the experiment, human lung cancer cells HCC827 cells and H1975 cells were selected as the detection system. The control group was a blank control (DMSO). The test concentrations of the compounds were 0.5 μM and 5 μM. After treatment with the compounds for 18 h, the flow cytometry was used for detection. In the apoptosis result graph, the cells in quadrant E1 are necrotic cells, the cells in quadrant E2 are late apoptotic cells, the cells in quadrant E3 area represent live cells, and the cells in quadrant E4 are early apoptotic cells.

HCC827 cells [3] = test: as above; settings: 18 h (control 10.8)
Experimental: as §7, §8

H1975 cells [4] = test: Cell cycle, PI staining, flow cytometry; settings: 18 h (control 30.25)
Experimental: (§9) A variety of different cells in the logarithmic growth phase were inoculated evenly in a 6-well plate at a concentration of 1×10^6 cells/well, 2 ml for each well, and then incubated overnight. Then, different compounds were added, and each compound was set different concentrations. After 18 h, the cells were collected, resuspended in PBS, and centrifuged to remove the supernatant, to which was then added 0.5 ml of pre-cooled 75% absolute ethanol dropwise, followed by vortexing to mix the cells and standing overnight at 4° C. The solution was centrifuged at 1000 rpm/min for 4 min, and the supernatant was discarded. Propidium iodide staining solution was prepared by using 5.6 ml staining buffer, 210 μl propidium iodide staining solution (25×), and 56 μl RNaseA (2.5 mg/ml). 0.4 ml of propidium iodide staining solution was added to each tube to resuspend the cells, and then incubated for 30 min at room temperature in the dark. The cell suspension was gently pipetted to mix, filtered into a flow tube, and stored in the dark at 4° C. The cells were detected on the flow cytometer within 1 h.

HCC827 cells [5] = test: Cell cycle, PI staining, flow cytometry; settings: 18 h (control 33.66)
Experimental: as §9

H1975 cells [6] = test: Inhibition of cell proliferation, CCK8 method; settings: H1975 EGFR mutant cells, 48 h, read-out: Inhibitory activity (IC50) against H1975
Experimental: as §5, §2
as §3, with “The” for “When the cells were cultured to 90% of the growth density, the cells were digested with 0.25% trypsin to prepare a single cell suspension. The”
as §6

HBE cells = test: Inhibition of cell proliferation, CCK8 method; settings: HBE normal bronchial epithelial cells, 48 h, CCK8; read-out: Inhibitory activity (IC50) against HBE
Experimental: as §5, §2
as §3, with “The” for “When the cells were cultured to 90% of the growth density, the cells were digested with 0.25% trypsin to prepare a single cell suspension. The”
as §6

[7] = system: normal cells and different lung cancer cell lines; test: Inhibition of cell proliferation, CCK8 method, comparison in words over the whole cell panel; settings: BEAS-2B, HBE, H460, A549, H1975, HCC827; CCK8, 48 h
Experimental: as §1, §2, §3, §4

[8] = H460 large cell lung cancer cells

| SMILES | IC50 (A549 cells; Homo sapiens) | IC50 (BEAS-2B cells; Homo sapiens) | IC50 (H460 cells; Homo sapiens, NCI-H460, H460 large cell lung cancer cells) | IC50 (HCC827 cells [1]; Homo sapiens) | Total apoptosis rate (%) (H1975 cells [2]; 0.5 μM) | Total apoptosis rate (%) (H1975 cells [2]; 5 μM) | Total apoptosis rate (%) (HCC827 cells [3]; 0.5 μM) | Total apoptosis rate (%) (HCC827 cells [3]; 5 μM) | S phase (%) (H1975 cells [4]; 0.5 μM) | S phase (%) (H1975 cells [4]; 5 μM) | S phase (%) (HCC827 cells [5]; 0.5 μM) | S phase (%) (HCC827 cells [5]; 5 μM) | IC50 (A549 cells) | IC50 (BEAS-2B cells) | IC50 (H460 cells; [8]) | IC50 (H1975 cells [6]) | IC50 (HBE cells) | IC50 (HCC827 cells [1]) | inhibitory effect on different cell lines (in words) [7] |
| --- | --- | --- | --- | --- | --- | --- | --- | --- | --- | --- | --- | --- | --- | --- | --- | --- | --- | --- | --- |
| C=CC(=O)Nc1cccc(Oc2nc(Nc3ccc(N4CCN(C)CC4)c(F)c3)nc3[nH]ccc23)c1 [Avitinib, reference compound] | 2.01 µM | 4.11 µM | 5.68 µM | 0.11 µM | 9.5% | 11.7% | 30.3% | 35.4% | 3.74% | 13.19% | 9.09% | 10.83% | – | – | – | – | – | – | – |
| C=CC(=O)Nc1cccc(Oc2nc(Nc3ccc(N4CCN(C)CC4)cc3)nc3[nH]ccc23)c1 [Compound 3] | – | – | – | – | – | – | – | – | – | – | – | – | 9.92 µM | 23.8 µM | 36 µM | 22 µM | 28.1 µM | 0.24 µM | lower |
| C=CC(=O)Nc1cccc(Oc2nc(Nc3ccc(N4CCN(C)CC4)c(F)c3)nc3[nH]ccc23)c1 [Compound 1] | – | – | – | – | – | – | – | – | – | – | – | – | 1.92 µM | 3.68 µM | 6.02 µM | 2.06 µM | – | 0.1 µM | basically the same as that of the positive control |
